Measured values from patent US12617752B2, “Rapidly metabolized lipid compound” (Beijing Jitai Life Sciences Ltd, priority 2023, dated 2026).

Legend:
C57BL/6 mice = assay: In vivo delivery of luciferase mRNA lipid nanoparticles in mice (bioluminescence imaging); details: intravenous, single dose 0.5 mg/kg luciferase mRNA
Procedure: The delivery effect and safety of nanoparticles encapsulated with luciferase mRNA (Trilink, L-7202) in mice were evaluated. The test mice were SPF-grade C57BL/6 mice, female, 6-8 weeks old, weighing 18-22 g, and were purchased from SPF (Beijing) Biotechnology Co., Ltd. All animals were acclimatized for more than 7 days prior to the experiment, and had free access to food and water during the experiment. The conditions include alternating light and dark for 12/12 h, the indoor temperature of 20-26° C. and the humidity of 40-70%. The mice were randomly grouped. The lipid nanoparticles encapsulated with luciferase mRNA prepared above were injected into mice by intravenous administration at a single dose of 0.5 mg/kg mRNA, and the mice were subjected to in vivo bioluminescence assay using a Small Animal In Vivo Imaging System (IVIS LUMINA III, purchased from PerkinElmer) at 6 h after administration. The assay was performed as follows: D-luciferin solution was prepared in saline at a concentration of 15 mg/mL, and each mouse was given the substrate by intraperitoneal injection. At ten minutes after administration of the substrate, the mice were anesthetized in an anesthesia chamber with isoflurane at a concentration of 2.5%. The anesthetized mice were placed in IVIS for fluorescence imaging, and data acquisition and analysis were performed on the concentrated distribution area of fluorescence.
The in vivo delivery efficiency of lipid nanoparticle carriers was expressed as the mean values of fluorescence intensity and total photon count in different animals within the same subject group, as shown in Table 5-Table 11. Higher values of fluorescence intensity and total photon count indicate higher in vivo delivery efficiency of this mRNA fragment by lipid nanoparticles. The lipid nanoparticles containing the cationic lipids of the present disclosure have good in vivo delivery efficiency.

[1] = Particle size and PDI of lipid nanoparticles by dynamic light scattering; assay type: physicochemical; details: lipid nanoparticles with luciferase mRNA; ionizable lipid/cholesterol/DSPC/DMG-PEG2000 50/38.5/10/1.5 mol%
Procedure: (§1) Lipid nanoparticles were prepared by (1) dissolving and mixing ionizable lipid compounds, cholesterol, phospholipids and polyethylene glycolated lipids in ethanol at (molar percentages) 50%, 38.5%, 10% and 1.5%, respectively; (2) dissolving the mRNA active ingredient in 25 mM sodium acetate solution (pH=4.5); (3) using an automated high-throughput microfluidic system to mix the organic phase containing the lipid mixture and the aqueous phase containing the mRNA component in the flow ratio range of 1:1 to 1:4 at a mixing speed of 10 mL/min to 18 mL/min; (4) the prepared lipid nanoparticles (N/P ratio=6) were diluted with phosphate buffer solution and the nanoparticle solutions were ultrafiltered to the original preparation volume using ultrafiltration tubes (purchased from Millipore) with a cut-off molecular weight of 30 kDa; and (5) the obtained nanoparticles were filtered through a sterile 0.2 μm filter membrane and then stored in a sealed glass vial at low temperature.
(§2) The particle size and particle size dispersity index (PDI) of the prepared lipid nanoparticles were measured using a Zetasizer Pro (purchased from Malvern Instruments Ltd) and a DynaPro NanoStar (purchased from Wyatt) dynamic light scattering instrument. The degree of RNA encapsulation by lipid nanoparticles was characterized by the Encapsulation Efficiency %, which reflects the degree of binding of lipid nanoparticles to RNA fragments. This parameter was measured by the method of Quant-it™ RiboGreen RNA Assay (purchased from Invitrogen). Lipid nanoparticle samples were diluted in TE buffer (10 mM Tris-HCl, 1 mM EDTA, pH=7.5). A portion of the sample solution was removed, to which 0.5% Triton (Triton X-100) was added, and then allowed to stand at 37° C. for 30 minutes. Immediately after the addition of RIBOGREEN® reaction solution, the fluorescence values were read on a Varioskan LUX multifunctional microplate reader (purchased from Thermofisher) at 485 nm for absorption and 528 nm for emission to give the encapsulation efficiency values.

[2] = Encapsulation efficiency of lipid nanoparticles (Quant-it RiboGreen RNA Assay); assay type: physicochemical; details: lipid nanoparticles with luciferase mRNA
Procedure: as §1, §2

| SMILES | Particle size (nm) [1] | Particle-size distribution (PDI) [1] | Encapsulation efficiency (%) [2] | Total photon count in vivo at 6 hours after administration (Total Flux) (C57BL/6 mice) |
| --- | --- | --- | --- | --- |
| CCCCCCCCCC(=O)OCC(C)(C)CCCCCN(CCCO)CCCCCCCC(=O)OC(CCCCCCCC)CCCCCCCC [2b] | 104.61 nm | 0.013 | 80.17% | 8.31E+10 |
| CCCCCCCCCOC(=O)CCCCCCCN(CCO)CCCCCCC1(C(=O)OC(CCCCCCCC)CCCCCCCC)CC1 [6a] | 90.67 nm | 0.018 | 87.22% | 2.88E+10 |
| CCCCCCCCCOC(=O)CCCCCCCN(CCO)CCCCCCC(C)(C)C(=O)OCCC(CCCCCC)CCCCCC [7a] |  |  |  | 5.26E+10 |
| CCCCCCCCC(CCCCCCCC)OC(=O)C(C)(C)CCCCCCN(CCO)CCCCCCCOC(=O)CCCC(CCCCC)CCCCC [7b] | 101.67 nm | 0.030 | 88.68% | 2.00E+10 |
| CCCCCCCCCCCOC(=O)CCCCCN(CCCO)CCCCCCC(C)(C)C(=O)OC(CCCCCCCC)CCCCCCCC [11a] | 98.01 nm | 0.021 | 89.36% | 2.05E+10 |
| CCCCCCCCCCCOC(=O)CCCCCN(CCCCO)CCCCCCC(C)(C)C(=O)OC(CCCCCCCC)CCCCCCCC [12a] | 104.85 nm | 0.021 | 85.24% | 1.39E+10 |
| CCCCCCCCCCCOC(=O)CCCCCN(CCO)CCCCCCC(C)(C)C(=O)OCC(CCCCCCC)CCCCCCC [14a] | 90.99 nm | 0.012 | 91.67% | 1.09E+11 |
| CCCCCCCCCCCOC(=O)CCCCCN(CCO)CCCCCCC(C)(C)C(=O)OCCC(CCCCCC)CCCCCC [15a] | 95.94 nm | 0.021 | 90.77% | 4.15E+10 |
| CCCCCCCCCC(=O)OCC1(CCCCCN(CCCCO)CCCCCCCC(=O)OC(CCCCCCCC)CCCCCCCC)CC1 [15b] | 120.27 nm | 0.015 | 69.69% | 8.22E+10 |
| CCCCCCCCCCC(=O)OCC(C)(C)CCCCCN(CCO)CCCCCCCC(=O)OC(CCCCCCCCC)CCCCCCCCC [16b] | 101.90 nm | 0.028 | 89.09% | 1.28E+11 |
| CCCCCCCCCCC(=O)OCC(C)(C)CCCCCN(CCCCO)CCCCCCCC(=O)OC(CCCCCCCCC)CCCCCCCCC [17b] | 109.87 nm | 0.030 | 87.72% | 1.74E+11 |
| CCCCCCCCCCOC(=O)CCCCCCCN(CCO)CCCCCC(C)(C)COC(=O)CCC(CCCCCC)CCCCCC [20b] | 107.83 nm | 0.032 | 87.69% | 4.82E+10 |
| CCCCCCCCCCC(=O)OCC1(CCCCCN(CCO)CCCCCCCC(=O)OC(CCCCCCCCC)CCCCCCCCC)CC1 [21b] | 94.58 nm | 0.051 | 92.37% | 4.95E+10 |
| CCCCCCCCCCOC(=O)CCCCCN(CCO)CCCCCCC(C)(C)C(=O)OC(CCCCCCC)CCCCCCC [23a] | 99.25 nm | 0.011 | 96.30% | 9.84E+10 |
| CCCCCCCCCC(=O)OCC1(CCCCCN(CCO)CCCCCCCC(=O)OCCC(CCCCCC)CCCCCC)CC1 [23b] | 115.70 nm | 0.031 | 93.14% | 3.92E+10 |

Second part, led by results:

| Particle size (nm) [1] | Particle-size distribution (PDI) [1] | Encapsulation efficiency (%) [2] | SMILES | Total photon count in vivo at 6 hours after administration (Total Flux) (C57BL/6 mice) |
| --- | --- | --- | --- | --- |
| 89.72 nm | 0.021 | 94.23% | CCCCCCCCCCCOC(=O)CCCCCN(CCO)CCCCCCC(C)(C)C(=O)OC(CCCCCCCC)CCCCCCCC [3a] | 1.03E+11 |
| 99.55 nm | 0.029 | 80.01% | CCCCCCCCCC(=O)OCCCCCCCN(CCO)CCCCCCC(C)(C)C(=O)OC(CCCCCCCC)CCCCCCCC [6b] | 7.42E+10 |
| 103.03 nm | 0.031 | 89.64% | CCCCCCCCCOC(=O)CCCCCCCN(CCO)CCCCCC(C)(C)CC(=O)OC(CCCCCCCC)CCCCCCCC [9a] | 2.06E+10 |
| 131.09 nm | 0.032 | 89.69% | CCCCCCCCCOC(=O)CCCCCCCN(CCO)CCCC(C)(C)CCC(=O)OC(CCCCCCCC)CCCCCCCC [10a] | 7.08E+10 |
| 110.20 nm | 0.018 | 92.96% | CCCCCCCCCCCOC(=O)CCCCCN(CCO)CCCCCCC1(C(=O)OC(CCCCCCCC)CCCCCCCC)CC1 [13a] | 5.01E+10 |
| 99.73 nm | 0.013 | 83.54% | CCCCCCCCCC(=O)OCC1(CCCCCN(CCO)CCCCCCCC(=O)OC(CCCCCCCC)CCCCCCCC)CC1 [14b] | 1.05E+11 |
| 100.46 nm | 0.037 | 89.34% | CCCCCCCCCCOC(=O)CCCCCCCN(CCO)CCCCCC(C)(C)COC(=O)C(CCCCCCCC)CCCCCCCC [18b] | 3.91E+10 |
| 109.37 nm | 0.035 | 87.90% | CCCCCCCCCCCOC(=O)CCCCCN(CCO)CCCCCC(C)(C)CC(=O)OC(CCCCCCCC)CCCCCCCC [19a] | 4.73E+10 |
| 109.53 nm | 0.036 | 83.01% | CCCCCCCCCCOC(=O)CCCCCCCN(CCO)CCCCCC(C)(C)COC(=O)CC(CCCCCCC)CCCCCCC [19b] | 6.13E+10 |
| 110.00 nm | 0.016 | 88.37% | CCCCCCCCC(CCCCCCCC)OC(=O)C(C)(C)CCCCCCN(CCO)CCCCCC(=O)OCCCCCCCCCC(C)C [21a] | 8.84E+10 |
| 99.48 nm | 0.010 | 97.25% | CCCCCCCCCCCOC(=O)CCCCCN(CCO)CCCCCCC1(C(=O)OC(CCCCCCCC)CCCCCCCC)CCCC1 [22a] | 1.74E+10 |
| 109.53 nm | 0.052 | 88.89% | CCCCCCCCCCCCOC(=O)CCCCCN(CCO)CCCCCCC(C)(C)C(=O)OC(CCCCCCCCC)CCCCCCCCC [24a] | 3.07E+10 |
